# Structures can show the parent of a compound that is named as a salt.
# Target: T1, Mouse VCP (Mus musculus, UniProt Q01853)
# T1 construct: histidine tag (N); made in house; host or cells: Sf-9 insect cells (baculovirus vector pVL1392)
# Experiment: ATPase activity of purified His-tagged VCP, [γ-32P]ATP, liberated phosphate by liquid scintillation
# Assay type: biochemical
# Settings: compounds of Comparative Examples; determined in the same manner as the Examples
# In short: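 Liberated 32P-phosphate, extracted as a molybdate complex and counted by liquid scintillation, was the readout. Reactions used 500 ng Sf-9-expressed, Ni-purified His-VCP (mouse), 100 μM [γ-32P]ATP and varied test concentrations for 10 min at 37° C in HEPES pH 7.4 buffer with Mg2+ and DTT. IC50 derived by curve fitting.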
# T1 sequence (Q01853 whole entry): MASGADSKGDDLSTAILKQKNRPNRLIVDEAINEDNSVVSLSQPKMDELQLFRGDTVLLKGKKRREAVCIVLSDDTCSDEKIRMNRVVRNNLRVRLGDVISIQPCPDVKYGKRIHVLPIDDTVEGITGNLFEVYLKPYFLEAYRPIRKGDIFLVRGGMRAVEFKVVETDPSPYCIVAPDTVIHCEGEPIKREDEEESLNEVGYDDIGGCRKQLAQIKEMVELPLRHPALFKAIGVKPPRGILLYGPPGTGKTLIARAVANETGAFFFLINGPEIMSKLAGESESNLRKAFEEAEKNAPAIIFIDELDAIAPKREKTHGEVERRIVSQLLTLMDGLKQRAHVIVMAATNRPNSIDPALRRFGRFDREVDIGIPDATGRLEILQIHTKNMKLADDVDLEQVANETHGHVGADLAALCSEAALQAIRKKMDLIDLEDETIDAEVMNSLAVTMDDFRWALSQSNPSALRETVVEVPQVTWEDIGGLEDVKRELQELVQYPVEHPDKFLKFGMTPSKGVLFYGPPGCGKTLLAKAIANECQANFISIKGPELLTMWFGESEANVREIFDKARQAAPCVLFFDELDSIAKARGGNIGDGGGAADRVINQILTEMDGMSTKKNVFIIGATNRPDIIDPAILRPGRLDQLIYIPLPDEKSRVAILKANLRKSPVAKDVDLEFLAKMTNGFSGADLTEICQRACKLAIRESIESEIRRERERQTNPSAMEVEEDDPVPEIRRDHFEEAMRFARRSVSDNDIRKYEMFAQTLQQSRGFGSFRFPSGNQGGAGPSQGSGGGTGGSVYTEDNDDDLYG
row,Structure (SMILES),IC50
1,"Nc1ccc(-c2cccc3c2sc2ccccc23)nc1 [Example 30, sodium salt]",> 100000 nM

# Same assay, conditions: compounds of Examples; ATPase inhibitory activity; 500 ng VCP, 100 μM ATP, 37° C., 10 minutes
row,Structure (SMILES),IC50
1,"Nc1c(/N=N/c2ccc(-c3cccc(-c4ccccc4)c3)nc2)cc(S(=O)(=O)O)c2ccccc12 [Example 42, 4-amino-3-(6-biphenyl-3-ylpyridine-3-ylazo)naphthalene-1-sulfonic acid sodium salt]",769 nM
2,"Cc1ccc(-c2ccc(Cl)cc2)c(-c2ccc(/N=N/c3cc(S(=O)(=O)O)c4ccccc4c3N)cn2)c1 [Example 72, 4-amino-3-[6-(4′-chloro-4-methylbiphenyl-2-yl)pyridine-3-ylazo]naphthalene-1-sulfonic acid sodium salt]",796 nM
3,"Nc1c(/N=N/c2ccc(-c3ccccc3OCCCO)nc2)cc(S(=O)(=O)O)c2ccccc12 [Example 66, 4-amino-3-{6-[2-(3-hydroxypropoxy)phenyl]pyridine-3-ylazo}naphthalene-1-sulfonic acid sodium salt]",232 nM
4,"Nc1c(/N=N/c2ccc(-c3cccc4cccnc34)nc2)cc(S(=O)(=O)O)c2ccccc12 [Example 83, 4-amino-3-(6-quinoline-8-ylpyridine-3-ylazo)naphthalene-1-sulfonic acid sodium salt]",350 nM
5,"Nc1c(/N=N/c2ccc(C(=O)Nc3ccc(CC(C(=O)O)C(=O)O)cc3)cc2)cc(S(=O)(=O)O)c2ccccc12 [Example 124, 2-{4-[4-(1-amino-4-sulfonaphthalene-2-ylazo)benzoylamino]benzyl}malonic acid trisodium salt]",4010 nM
6,"Nc1c(/N=N/c2ccc(-c3ccccc3)nc2)cc(S(=O)(=O)O)c2ccccc12 [Example 7, 4-amino-3-(6-phenylpyridine-3-ylazo)naphthalene-1-sulfonic acid sodium salt]",229 nM
7,"Nc1c(/N=N/c2ccc(-c3ccccc3Oc3ccccc3)nc2)cc(S(=O)(=O)O)c2ccccc12 [Example 29, 4-amino-3-[6-(2-phenoxyphenyl)pyridine-3-ylazo]naphthalene-1-sulfonic acid sodium salt]",287 nM
8,"COc1cc([N+](=O)[O-])ccc1/N=N/c1cc(S(=O)(=O)O)c2ccccc2c1N [Example 121, 4-amino-3-(2-methoxy-4-nitrophenylazo)naphthalene-1-sulfonic acid sodium salt]",2560 nM
9,"COc1ccc(/N=N/c2cc(S(=O)(=O)O)c3ccccc3c2N)cn1 [Example 2, 4-amino-3-(6-methoxypyridine-3-ylazo)naphthalene-1-sulfonic acid sodium salt]",571 nM
10,"N#Cc1cccc(/N=N/c2cc(S(=O)(=O)O)c3ccccc3c2N)c1 [Example 106, 4-amino-3-(3-cyanophenylazo)naphthalene-1-sulfonic acid sodium salt]",2260 nM
11,"Nc1c(/N=N/c2ccccc2F)cc(S(=O)(=O)O)c2ccccc12 [Example 94, 4-amino-3-(2-fluorophenylazo)naphthalene-1-sulfonic acid sodium salt]",1110 nM
12,"Nc1c(/N=N/c2ccc(OCC(F)(F)F)nc2)cc(S(=O)(=O)O)c2ccccc12 [Example 5, 4-amino-3-[6-(2,2,2-trifluoroethoxy)pyridine-3-ylazo]naphthalene-1-sulfonic acid sodium salt]",495 nM
13,"CCCOc1ccc(F)cc1-c1ccc(/N=N/c2cc(S(=O)(=O)O)c3ccccc3c2N)cn1 [Example 55, 4-amino-3-[6-(5-fluoro-2-propoxyphenyl)pyridine-3-ylazo]naphthalene-1-sulfonic acid sodium salt]",139 nM
14,"Nc1c(/N=N/c2ccc(-c3ccccc3O)nc2)cc(S(=O)(=O)O)c2ccccc12 [Example 63, 4-amino-3-[6-(2-hydroxyphenyl)pyridine-3-ylazo]naphthalene-1-sulfonic acid sodium salt]",807 nM
15,"Cc1cc(-c2cccnc2)ncc1/N=N/c1cc(S(=O)(=O)O)c2ccccc2c1N [Example 53, 4-amino-3-(4-methyl-[2,3′]bipyridinyl-5-ylazo)naphthalene-1-sulfonic acid sodium salt]",1150 nM
16,"CCCCCCOc1ccccc1-c1ccc(/N=N/c2cc(S(=O)(=O)O)c3ccccc3c2N)cn1 [Example 61, 4-amino-3-[6-(2-hexyloxyphenyl)pyridine-3-ylazo]naphthalene-1-sulfonic acid sodium salt]",843 nM
17,"Nc1c(/N=N/c2ccc(Br)cc2)cc(S(=O)(=O)O)c2ccccc12 [Example 110, 4-amino-3-(4-bromophenylazo)naphthalene-1-sulfonic acid sodium salt]",226 nM
18,"CSc1ccccc1/N=N/c1cc(S(=O)(=O)O)c2ccccc2c1N [Example 133, 4-amino-3-(2-methylsulfanylphenylazo)naphthalene-1-sulfonic acid sodium salt]",518 nM
19,"Cc1cc(/N=N/c2cc(S(=O)(=O)O)c3ccccc3c2N)cnc1-c1cccc2c1sc1ccccc12 [Example 85, 4-amino-3-(6-dibenzothiophene-4-yl-5-methylpyridine-3-ylazo)naphthalene-1-sulfonic acid sodium salt]",1050 nM

row,Structure (SMILES),IC50
1,"Cc1cc(F)ccc1-c1ccc(/N=N/c2cc(S(=O)(=O)O)c3ccccc3c2N)cn1 [Example 49, 4-amino-3-[6-(4-fluoro-2-methylphenyl)pyridine-3-ylazo]naphthalene-1-sulfonic acid sodium salt]",330 nM
2,"Cc1ccc(-c2cccc(Cl)c2)c(-c2ccc(/N=N/c3cc(S(=O)(=O)O)c4ccccc4c3N)cn2)c1 [Example 75, 4-amino-3-[6-(3′-chloro-4-methylbiphenyl-2-yl)pyridine-3-ylazo]naphthalene-1-sulfonic acid sodium salt]",924 nM
3,"Nc1c(/N=N/c2ccc(Cl)cc2Br)cc(S(=O)(=O)O)c2ccccc12 [Example 117, 4-amino-3-(2-bromo-4-chlorophenylazo)naphthalene-1-sulfonic acid sodium salt]",230 nM
4,"Nc1c(/N=N/c2cccc(OCc3cccnc3)c2)cc(S(=O)(=O)O)c2ccccc12 [Example 138, 4-amino-3-[3-(pyridine-3-ylmethoxy)phenylazo]naphthalene-1-sulfonic acid sodium salt]",516 nM
5,"Nc1c(/N=N/c2cccc(OCc3ccccn3)c2)cc(S(=O)(=O)O)c2ccccc12 [Example 137, 4-amino-3-[3-(pyridine-2-ylmethoxy)phenylazo]naphthalene-1-sulfonic acid sodium salt]",610 nM
6,"Nc1c(/N=N/c2ccc(-c3ccccc3OCCCN3C(=O)c4ccccc4C3=O)nc2)cc(S(=O)(=O)O)c2ccccc12 [Example 78, 4-amino-3-(6-{2-[3-(1,3-dioxo-1,3-dihydroisoindole-2-yl)propoxy]phenyl}pyridine-3-ylazo)naphthalene-1-sulfonic acid sodium salt]",402 nM
7,"Nc1c(/N=N/c2ccc(Cl)cc2)cc(S(=O)(=O)O)c2ccccc12 [Example 100, 4-amino-3-(4-chlorophenylazo)naphthalene-1-sulfonic acid sodium salt]",408 nM
8,"N#Cc1cccc(-c2ccc(/N=N/c3cc(S(=O)(=O)O)c4ccccc4c3N)cn2)c1 [Example 44, 4-amino-3-[6-(3-cyanophenyl)pyridine-3-ylazo]naphthalene-1-sulfonic acid sodium salt]",584 nM
9,"Cc1cccc(-c2ccc(/N=N/c3cc(S(=O)(=O)O)c4ccccc4c3N)cn2)c1C [Example 33, 4-amino-3-[6-(2,3-dimethylphenyl)pyridine-3-ylazo]naphthalene-1-sulfonic acid sodium salt]",301 nM
10,"Cc1cc(F)ccc1-c1ccc(/N=N/c2cc(S(=O)(=O)O)c3ccccc3c2N)cc1F [Example 144, 4-amino-3-(2,4′-difluoro-2′-methyl-diphenyl-4-ylazo)naphthalene-1-sulfonic acid sodium salt]",199 nM
11,"Nc1c(/N=N/c2ccc(-c3ccc(Cl)cc3)nc2)cc(S(=O)(=O)O)c2ccccc12 [Example 24, 4-amino-3-[6-(4-chlorophenyl)pyridine-3-ylazo]naphthalene-1-sulfonic acid sodium salt]",540 nM
12,"Nc1c(/N=N/c2ccc(OCc3cccnc3)cc2)cc(S(=O)(=O)O)c2ccccc12 [Example 135, 4-amino-3-[4-(pyridine-3-ylmethoxy)phenylazo]naphthalene-1-sulfonic acid sodium salt]",716 nM
13,"CCCOc1ccccc1-c1ccc(/N=N/c2cc(S(=O)(=O)O)c3ccccc3c2N)cn1 [Example 48, 4-amino-3-[6-(2-propoxyphenyl)pyridine-3-ylazo]naphthalene-1-sulfonic acid sodium salt]",127 nM
14,"Nc1c(/N=N/c2ccccc2Cl)cc(S(=O)(=O)O)c2ccccc12 [Example 98, 4-amino-3-(2-chlorophenylazo)naphthalene-1-sulfonic acid sodium salt]",591 nM
15,"CC(=O)c1ccccc1-c1ccc(/N=N/c2cc(S(=O)(=O)O)c3ccccc3c2N)cn1 [Example 14, 3-[6-(2-acetylphenyl)pyridine-3-ylazo]-4-aminonaphthalene-1-sulfonic acid sodium salt]",178 nM
16,"N#C/C(=C\c1ccc(/N=N/c2cc(S(=O)(=O)O)c3ccccc3c2N)cc1)c1ccccc1 [Example 143, 4-amino-3-[4-(2-cyano-2-phenylvinyl)phenylazo]naphthalene-1-sulfonic acid sodium salt]",1220 nM
17,"CC(C)Oc1ccccc1-c1ccc(/N=N/c2cc(S(=O)(=O)O)c3ccccc3c2N)cn1 [Example 27, 4-amino-3-[6-(2-isopropoxyphenyl)pyridine-3-ylazo]naphthalene-1-sulfonic acid sodium salt]",145 nM
18,"COc1ccccc1-c1ccc(/N=N/c2cc(S(=O)(=O)O)c3ccccc3c2N)cn1 [Example 25, 4-amino-3-[6-(2-methoxyphenyl)pyridine-3-ylazo]naphthalene-1-sulfonic acid sodium salt]",300 nM

# Reference: patent US9573887B2, “Naphthalene derivative” (Daito Chemix Corporation, priority 2010, dated 2017)
